Test results reported in patent US9079977B2, “Anti-trypanosomal peptides and uses thereof” (priority 2009, dated 2015).
Where a SMILES comes first, the peptide text is derived from it.

How the values were obtained:
[1] = test system: LNCaP prostate cancer cells; assay: Mammalian cell viability assay (trypan blue exclusion), Example 2; assay type: cell-based, human; conditions: 80-160 μM, 2 h at 37° C.
Experimental: (§1) Mammalian cell viability and hemolysis assays. Human embryonic kidney cells (HEK) (ATCC CRL-1573) and LNCaP prostate cancer cells (ATCC CRL-1740) were utilized for cell viability assays. Human embryonic kidney cells were cultured in Dulbecco's Modified Eagles Medium, high glucose (Thermo Scientific, cat #SH30243.01) with 10% fetal bovine serum at 37° C. and 5% CO2. Prostate cancer cells were cultured in RPM-1640 medium (Invitrogen, cat #A10491-01) with 10% fetal bovine serum at 37° C. and 5% CO2. In both cases, assays were performed by aliquoting cells into 96 well plates at approximately 60% confluency and allowing the cells to adhere for two hours. Cells were then incubated with serial dilutions of SHP-1, or the relevant control, in the corresponding media for two hours at 37° C. Cell viability was determined by the ability of live cells to exclude trypan blue. The cells were incubated with 0.1% trypan blue for 10 minutes and examined microscopically for cytoplasmic staining. The potential for SHP-1 to induce hemolysis was assayed by monitoring hemoglobin (Hb) release from freshly collected human erythrocytes that had been washed and incubated with SHP-1 in PBS. The Hb concentration of the supernatant was determined by the absorbance at 412 nm and compared to 100% hemolysis acquired by hypotonic lysis. […]

[2] = not told
Experimental: Calcein release assays. […] Briefly, liposomes were diluted 1:1000 into 50 mM Tris, pH 7.0 and calcein fluorescence was monitored at 513 nm when excited at 484 nm. The percent calcein release was calculated relative to the 100% fluorescence intensity, achieved by the addition of 0.01% Triton X-100.

[3] = test system: Human embryonic kidney cells (HEK); assay: Mammalian cell viability assay (trypan blue exclusion), Example 2; assay type: cell-based; conditions: 80-160 μM, 2 h at 37° C.
Experimental: as §1

BSF T. b. brucei [4] = assay: Flow cytometry binding of FITC-labeled SHP; assay type: cell-based, Trypanosoma brucei brucei; conditions: 8 μM FITC-labeled peptide
Experimental: Flow Cytometry. Peptide binding to BSF T. b. brucei was monitored by flow cytometry. Binding assays were performed with 3×10^6 cells/ml in HMI 9 plus 10% fetal bovine serum at 25° C. FITC-labeled SHP-1 or SHP-3 was added to a final concentration of 8 μM and 50,000 cells were immediately counted on a CyAn ADP flow cytometer (Dako). Data were analyzed with FlowJo software (TreeStar Inc.).

BSF T. b. brucei [5] = assay: Trypanosome motility by video microscopy, Example 4; assay type: cell-based, Trypanosoma brucei brucei; conditions: 40 μM peptide, 37° C.
Experimental: Trypanosome motility. All images and videos were acquired with an Axio Observer Z1 equipped with an AxioCam MRm controlled by AxioVision 4.6 software. Videos were acquired with live cells at a density of 1×10^7 cells/ml in HMI 9 media with 10% fetal bovine serum, incubated with 40 µM SHP-1 at 37° C. Videos were recorded at magnification 63× with 50-ms acquisition times. The motility of BSF trypanosomes was scored visually from video playback of trypanosomes scanned throughout 10 μl aliquots. Data is shown as the average of triplicate trials with standard deviations.

[6] = test system: plasma membrane of live BSF T. b. brucei; assay: Anisotropy assays with DPH and TMA-DPH, Example 4; assay type: cell-based, Trypanosoma brucei brucei; conditions: 37° C.
Experimental: Anisotropy Assays. The plasma membrane rigidity of live T. b. brucei was determined by measuring the fluorescence depolarization of diphenyl-1,3,5-hexatriene p-toluenesulfonate (DPH) or 1-(4-trimethylammoniumphenyl)-6-diphenyl-1,3,5-hexatriene p-toluenesulfonate (TMA-DPH; Invitrogen T204). Cells were washed 3 times with and resuspended in PBS at a density of 3×10^6 cells/ml. The anisotropic probes were added to a final concentration of […] and allowed to intercalate into the cell membrane for one hour in the dark. Anisotropic values were acquired via the software function of a PerkinElmer Life Sciences LS55 spectrofluorometer. Samples were excited at 358 nm, and emission was read at 430 nm, both with 10-nm slit widths. Temperature was maintained at 37° C. by means of the PerkinElmer LS55 Biokinetics accessory. Data were corrected for light scattering with an unlabeled sample of cells, and anisotropy was calculated according to the equation r=(IVV−GIVH)/(IVV+2GIVH), where r is the anisotropy value, IVV is the emission intensity acquired with the excitation- and emission-polarizing filters set vertically, G is the instrument correction factor, and IVH is the emission intensity acquired with the excitation-polarizing filter set vertically and the emission-polarizing filter set horizontally. All assays were conducted at 37° C. […]

BSF T. b. brucei [7] = assay: Trypanosome killing assay, Example 4; assay type: cell-based, Trypanosoma brucei brucei; conditions: two hour killing assay, 37° C.
Experimental: Trypanosome Killing Assays. Light microscopy based trypanosome killing assays were performed as previously described in detail (Harrington et al., 2010, J Biol Chem; 285(37):28659-66; Widener et al., 2007, PLoS Pathog; 3(9):1250-61; Shiflett et al., 2007, J Eukaryot Microbiol; 54(1):18-21; and Hajduk et al., 1989, J Biol Chem; 264(9):5210-7). Metacyclic T. b. brucei TREU 667 were obtained from dissection of the salivary glands of infected tsetse flies. Newly hatched Glossina morsitans morsitans (24-48 hours post eclosion) were fed defibrinated horse blood containing 2×10^6 ml^−1 trypanosomes and maintained at 25° C. in 75% relative humidity and fed maintenance blood meals three times per week. Following day 20-30, flies were harvested and salivary glands were dissected out and washed in HMI 9 media containing 10% fetal bovine serum. Metacyclic cells were collected via centrifugation and maintained in HMI 9 media with 10% fetal bovine serum at 37° C. in 5% CO2 until use. Killing assays were conducted with 1×10^4 cells/ml in HMI 9 media containing 10% fetal bovine serum. Trypanosoma vivax and T. congolense were grown from stabilites in donor ICR mouse (Harlan, United Kingdom). Parasites were harvested from mice by terminal exsanguination and passage of infected blood through a small anion exchange column. Cells were maintained in HMI 9 with 20% goat serum at 37° C. in 5% CO2 until use. Killing assays were performed with 1×10^7 cells/ml in HMI 9 media with either 20% goat serum, in the case of T. vivax and T congolense, and 10% fetal bovine serum, for T. b. brucei. Cells were incubated at 37° C. for 2 hours and dead parasites were scored visually. All were conducted in at least duplicate, and data points are the averages with standard deviations.

Row | Compound | cell death of LNCaP cells (morphology, trypan blue exclusion) [1] | permeabilization of homogenous symmetric saturated PC liposomes [2] | permeabilization of symmetric 15:0 PC or DPPC liposomes above Tm [2] | cell death of HEK cells (morphology, trypan blue exclusion) [3] | binding to BSF T. brucei (BSF T. b. brucei [4]) | motility phenotype (hyperactivation, constriction) (BSF T. b. brucei [5]) | rigidity of the interfacial region of the plasma membrane (TMA-DPH) [6] | killing of BSF T. brucei (trypanocidal activity) (BSF T. b. brucei [7])
1 | CC[C@H](C)[C@H](NC(=O)[C@@H](NC(=O)[C@H](C)NC(=O)CNC(=O)[C@H](CC(C)C)NC(=O)[C@H](CC(=O)O)NC(=O)[C@@H](N)CO)C(C)C)C(=O)N[C@@H](CO)C(=O)N[C@@H](CC(C)C)C(=O)N[C@@H](CC(C)C)C(=O)N[C@@H](CC(C)C)C(=O)N[C@@H](Cc1c[nH]c2ccccc12)C(=O)NCC(=O)N[C@@H](CCCNC(=N)N)C(=O)N[C@@H](CCC(N)=O)C(=O)N[C@@H](CC(C)C)C(=O)N[C@@H](Cc1ccccc1)C(=O)N[C@@H](C)C(=O)O [SHP-1, SDLGAVISLLLWGRQLFA] (H-SDLGAVISLLLWGRQLFA-OH; N-terminus and C-terminus assumed) | did not result in cell death | not permeabilized | resulted in sensitivity to permeabilization | did not result in cell death | – | – | – | –
2 | FHQIWAALLYFYGIILNSIY (amino acid sequence of small hydrophobic peptide -3 (SHP-3)) [Small hydrophobic peptide 3, derived from an apolipoprotein] | – | – | – | – | binding to BSF T. brucei | does cause initial hyperactivation of BSF T. b. brucei, however subsequent constriction of motility does not occur | increased the rigidity of the interfacial region of the plasma membrane | no killing was seen
